Measurements taken from patent US12421243B2, “Pharmaceutically effective compounds inhibiting selectively the myosin 2 isoforms” (PRINTNET KERESKEDELMI ÉS SZOLGÁLTATÓ KFT., priority 2018, dated 2025).

How the values were obtained:
[1] = molecular target: recombinant Dictyostelium miozin (Dictyostelium) (Dictyostelium discoideum, UniProt P08799); test: actomyosin steady state ATPase measurement, Dictyostelium myosin; type: biochemical; conditions: for IC50: concentration required for semi-maximal inhibition of ATPase, read-out: IC50 (μM) Dicty; for inhibition at 5 µM: read-out: % inhibition at 5 μM (or 10 μM if racemate) Dicty; for inhibition at 50 µM: read-out: % inhibition at 50 μM (or 100 μM if racemate) Dicty; for % inhibition. complete Dicty: maximum value of inhibition of ATPase activity
Text: (§1) […]; (ii) the concentration required for semi-maximal inhibition.

[2] = molecular target: T1, isolated porcine cardiac ventricular myocardium (cardiac) (Sus scrofa, UniProt P79293); test: actomyosin steady state ATPase measurement, cardiac myosin; type: biochemical; conditions: for IC50: concentration required for semi-maximal inhibition of ATPase; for Inhibition (%) cardiac: maximum inhibition, compounds in IC50 range 3-6 μM; for % inhibition. complete cardiac: maximum value of inhibition of ATPase activity; for inhibition at 5 µM: read-out: % inhibition at 5 μM (or 10 μM if racemate) cardiac, 5 μM (10 μM if racemate); for inhibition at 5 µM / inhibition at 50 µM: ATPase activity; for inhibition at 50 µM: read-out: % inhibition at 50 μM (or 100 μM if racemate) cardiac, 50 μM (100 μM if racemate)
T1 construct: isolated porcine cardiac ventricular myocardium (cardiac); from tissue; host or cells: porcine cardiac ventricle
T1 sequence (P79293 whole entry): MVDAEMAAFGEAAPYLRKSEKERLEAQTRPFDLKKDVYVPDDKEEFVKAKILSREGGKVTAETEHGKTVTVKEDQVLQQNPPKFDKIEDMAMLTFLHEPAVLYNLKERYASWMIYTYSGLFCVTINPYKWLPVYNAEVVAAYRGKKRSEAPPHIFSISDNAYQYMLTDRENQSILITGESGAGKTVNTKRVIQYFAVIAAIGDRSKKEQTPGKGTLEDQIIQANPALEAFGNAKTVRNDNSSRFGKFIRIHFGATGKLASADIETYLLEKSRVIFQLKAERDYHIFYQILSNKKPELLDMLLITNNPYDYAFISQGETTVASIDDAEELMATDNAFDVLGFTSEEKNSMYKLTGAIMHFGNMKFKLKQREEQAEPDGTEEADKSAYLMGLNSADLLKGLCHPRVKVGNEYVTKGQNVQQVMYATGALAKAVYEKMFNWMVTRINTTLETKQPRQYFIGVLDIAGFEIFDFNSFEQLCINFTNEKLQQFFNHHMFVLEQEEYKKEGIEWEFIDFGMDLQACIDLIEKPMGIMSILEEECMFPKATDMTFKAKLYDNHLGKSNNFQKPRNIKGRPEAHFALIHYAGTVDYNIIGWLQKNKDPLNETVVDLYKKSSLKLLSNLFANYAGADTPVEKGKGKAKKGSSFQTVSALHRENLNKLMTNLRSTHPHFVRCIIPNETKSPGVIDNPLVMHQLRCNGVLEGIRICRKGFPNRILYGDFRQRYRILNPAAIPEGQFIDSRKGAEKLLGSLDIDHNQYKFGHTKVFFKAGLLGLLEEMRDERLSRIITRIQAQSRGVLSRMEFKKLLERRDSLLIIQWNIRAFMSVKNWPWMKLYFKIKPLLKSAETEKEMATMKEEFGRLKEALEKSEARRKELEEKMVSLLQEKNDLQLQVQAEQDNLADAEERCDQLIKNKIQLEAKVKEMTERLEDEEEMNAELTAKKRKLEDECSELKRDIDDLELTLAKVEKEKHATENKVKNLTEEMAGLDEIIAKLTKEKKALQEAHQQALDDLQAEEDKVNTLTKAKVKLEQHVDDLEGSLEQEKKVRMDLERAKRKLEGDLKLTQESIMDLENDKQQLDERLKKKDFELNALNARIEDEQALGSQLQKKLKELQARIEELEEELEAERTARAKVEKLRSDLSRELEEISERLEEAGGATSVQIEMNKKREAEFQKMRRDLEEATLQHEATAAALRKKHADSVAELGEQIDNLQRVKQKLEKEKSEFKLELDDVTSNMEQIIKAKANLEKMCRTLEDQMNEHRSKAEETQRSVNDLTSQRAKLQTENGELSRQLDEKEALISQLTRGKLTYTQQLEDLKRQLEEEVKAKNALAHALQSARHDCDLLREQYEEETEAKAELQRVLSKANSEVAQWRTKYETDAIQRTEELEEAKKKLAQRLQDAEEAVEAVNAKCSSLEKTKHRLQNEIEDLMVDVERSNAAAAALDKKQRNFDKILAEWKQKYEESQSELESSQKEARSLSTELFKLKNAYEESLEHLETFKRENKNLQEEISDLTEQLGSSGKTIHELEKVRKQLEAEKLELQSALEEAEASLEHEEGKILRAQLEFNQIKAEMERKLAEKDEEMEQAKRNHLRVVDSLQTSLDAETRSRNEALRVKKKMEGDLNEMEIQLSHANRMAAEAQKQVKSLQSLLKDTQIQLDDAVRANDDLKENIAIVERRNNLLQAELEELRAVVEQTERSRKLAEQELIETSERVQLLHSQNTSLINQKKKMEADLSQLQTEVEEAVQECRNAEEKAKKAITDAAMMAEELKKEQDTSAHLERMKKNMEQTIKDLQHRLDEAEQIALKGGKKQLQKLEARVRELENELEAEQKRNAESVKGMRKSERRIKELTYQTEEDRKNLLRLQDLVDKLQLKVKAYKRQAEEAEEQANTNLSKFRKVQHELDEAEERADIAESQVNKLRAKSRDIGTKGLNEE
Text: as §1

[3] = molecular target: isolated smooth muscle myosin (UniProt P10587); type: biochemical, chamois; conditions: for % inhibition at 5 μM (or 10 μM if racemate) Smooth: 5 μM (10 μM if racemate); for % inhibition at 5 μM (or 10 μM if racemate) Smooth / % inhibition at 50 μM (or 100 μM if racemate) Smooth: ATPase activity; for % inhibition at 50 μM (or 100 μM if racemate) Smooth: 50 μM (100 μM if racemate); for % inhibition. complete Smooth: maximum value of inhibition of ATPase activity; for Inhibition (%) smooth: maximum inhibition, compounds in IC50 range 1-5 μM
isolated smooth muscle myosin, sequence (P10587 whole entry): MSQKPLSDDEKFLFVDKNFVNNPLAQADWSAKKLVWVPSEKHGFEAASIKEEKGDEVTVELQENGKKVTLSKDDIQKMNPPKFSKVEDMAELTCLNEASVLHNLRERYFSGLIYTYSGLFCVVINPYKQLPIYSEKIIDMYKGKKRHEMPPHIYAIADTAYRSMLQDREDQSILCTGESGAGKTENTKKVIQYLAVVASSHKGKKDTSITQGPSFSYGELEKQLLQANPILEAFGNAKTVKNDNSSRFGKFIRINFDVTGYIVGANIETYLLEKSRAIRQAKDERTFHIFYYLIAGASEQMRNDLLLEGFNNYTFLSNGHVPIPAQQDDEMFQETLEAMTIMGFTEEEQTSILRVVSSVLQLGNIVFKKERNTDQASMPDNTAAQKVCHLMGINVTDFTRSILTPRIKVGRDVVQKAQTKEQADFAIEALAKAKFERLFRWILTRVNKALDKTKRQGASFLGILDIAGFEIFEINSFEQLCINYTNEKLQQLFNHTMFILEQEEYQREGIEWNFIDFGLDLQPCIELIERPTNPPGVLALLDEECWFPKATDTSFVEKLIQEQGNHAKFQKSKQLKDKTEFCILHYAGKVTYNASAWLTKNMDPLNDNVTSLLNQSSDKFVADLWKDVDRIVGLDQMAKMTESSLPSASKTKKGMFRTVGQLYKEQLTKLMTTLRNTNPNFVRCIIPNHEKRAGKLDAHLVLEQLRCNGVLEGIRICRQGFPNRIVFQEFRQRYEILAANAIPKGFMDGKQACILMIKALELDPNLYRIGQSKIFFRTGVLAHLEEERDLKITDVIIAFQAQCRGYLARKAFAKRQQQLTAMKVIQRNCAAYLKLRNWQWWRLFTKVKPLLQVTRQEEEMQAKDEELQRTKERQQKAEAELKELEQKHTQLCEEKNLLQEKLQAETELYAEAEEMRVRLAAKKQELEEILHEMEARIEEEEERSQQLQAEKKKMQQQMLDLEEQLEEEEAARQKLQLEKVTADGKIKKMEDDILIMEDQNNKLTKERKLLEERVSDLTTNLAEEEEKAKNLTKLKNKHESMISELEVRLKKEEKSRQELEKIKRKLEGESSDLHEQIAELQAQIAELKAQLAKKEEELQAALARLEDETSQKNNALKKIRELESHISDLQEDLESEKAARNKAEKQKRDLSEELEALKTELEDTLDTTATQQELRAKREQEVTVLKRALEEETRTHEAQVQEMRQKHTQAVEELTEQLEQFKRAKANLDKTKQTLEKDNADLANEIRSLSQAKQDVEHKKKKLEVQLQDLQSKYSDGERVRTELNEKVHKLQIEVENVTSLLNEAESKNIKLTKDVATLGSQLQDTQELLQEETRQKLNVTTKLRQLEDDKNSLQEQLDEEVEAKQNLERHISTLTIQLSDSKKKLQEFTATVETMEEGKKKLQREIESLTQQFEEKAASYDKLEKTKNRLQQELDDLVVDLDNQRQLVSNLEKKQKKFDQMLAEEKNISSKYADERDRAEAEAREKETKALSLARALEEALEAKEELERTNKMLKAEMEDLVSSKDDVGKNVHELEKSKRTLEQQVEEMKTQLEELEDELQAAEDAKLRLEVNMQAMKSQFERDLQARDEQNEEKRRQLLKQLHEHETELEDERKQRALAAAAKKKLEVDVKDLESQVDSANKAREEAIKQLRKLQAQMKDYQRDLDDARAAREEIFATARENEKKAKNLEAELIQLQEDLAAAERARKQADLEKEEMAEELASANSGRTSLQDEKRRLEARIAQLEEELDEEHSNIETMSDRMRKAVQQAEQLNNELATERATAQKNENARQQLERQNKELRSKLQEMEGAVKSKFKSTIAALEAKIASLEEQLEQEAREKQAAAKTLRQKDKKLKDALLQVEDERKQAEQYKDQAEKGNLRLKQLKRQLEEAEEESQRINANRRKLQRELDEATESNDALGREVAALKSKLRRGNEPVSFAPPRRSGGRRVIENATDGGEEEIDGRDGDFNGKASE

[4] = molecular target: isolated smooth muscle myosin (UniProt P10587); type: biochemical, chamois; conditions: concentration required for semi-maximal inhibition of ATPase
Text: (ii) the concentration required for semi-maximal inhibition.

[5] = test system: isolated rabbit skeletal muscle myosin (skeletal); test: actomyosin steady state ATPase measurement, skeletal muscle myosin; type: biochemical; conditions: for % inhibition at 5 μM (or 10 μM if racemate) Skeletal: 5 μM (10 μM if racemate); for % inhibition at 5 μM (or 10 μM if racemate) Skeletal / % inhibition at 50 μM (or 100 μM if racemate) Skeletal: ATPase activity; for % inhibition at 50 μM (or 100 μM if racemate) Skeletal: 50 μM (100 μM if racemate); for IC50: concentration required for semi-maximal inhibition of ATPase; for % inhibition. complete Skeletal: maximum value of inhibition of ATPase activity; for Inhibition (%) skeletal: maximum inhibition, compounds in IC50 range 1-2 μM
Text: as §1

SMILES | IC50 [1] [µM] | inhibition at 5 µM [1] [%] | inhibition at 50 µM [1] [%] | IC50 [2] [µM] | Inhibition (%) cardiac [2] [%] | % inhibition. complete cardiac [2] [%] | inhibition at 5 µM [2] [%] | inhibition at 50 µM [2] [%] | % inhibition at 5 μM (or 10 μM if racemate) Smooth [3] [%] | % inhibition at 50 μM (or 100 μM if racemate) Smooth [3] [%] | % inhibition. complete Smooth [3] [%] | IC50 [4] [µM] | % inhibition at 5 μM (or 10 μM if racemate) Skeletal [5] [%] | % inhibition at 50 μM (or 100 μM if racemate) Skeletal [5] [%] | IC50 [5] [µM] | % inhibition. complete Skeletal [5] [%] | Inhibition (%) smooth [3] [%] | Inhibition (%) skeletal [5] [%] | % inhibition. complete Dicty [1] [%]
O=C1c2ccsc2N=C2NCC[C@@]12O [Compound 207, (9S)-9-Hydroxy-4-thia-2,12-diazatricyclo[7.3.0.0^3,7]dodeca-1,3(7),5-trien-8-one] | > 100 | 0 | 5 | 3.7 | 8 | 8 | 4 | 7 | 7 | 6 | 7 | 1 | 7 | 14 | 5.8 | 15 |  |  | 
Cc1cc2c(s1)N=C1NCCC1(O)C2=O (stereo not drawn) [Compound 231, 9-Hydroxy-5-methyl-4-thia-2,12-diazatricyclo[7.3.0.0^3,7]dodeca-1,3(7),5-trien-8-one] | > 100 | 4 | 0 | 1 |  |  | 6 | 5 | 7 | 2 | 5 | 1 | 5 | 7 | 1.4 | 7 | 5 | 7 | 
Cc1ccc(N2CCC3(O)C(=O)c4cc(C)sc4N=C23)cc1 (stereo not drawn) [Compound 235, 12-[4-(Methyl)phenyl]-9-hydroxy-5-methyl-4-thia-2,12-diazatricyclo[7.3.0.0^3,7]dodeca-1,3(7),5-trien-8-one] | 0.17 | 44 | 45 | 0.01 |  | 71 | 72 | 70 | 82 | 79 | 81 | 0.01 | 98 | 100 | 0.08 | 100 |  |  | 46
CC(=O)c1ccc(N2CCC3(O)C(=O)c4ccncc4N=C23)cc1 (stereo not drawn) [Compound 240, 1-(4-Acetylphenyl)-3a-hydroxy-1H,2H,3H,3aH,4H-pyrrolo[2,3-b]1,7-naphthyridin-4-one] | 0.39 | 24 | 26 | 8.1 |  | 37 | 13 | 31 | 18 | 23 | 24 | 1.5 | 49 | 83 | 4.3 | 91 | 24 |  | 
Cc1ccc(N2CCC3(O)C(=O)c4ccncc4N=C23)cc1 (stereo not drawn) [Compound 247, 1-[4-(Methyl)phenyl]-3a-hydroxy-1H,2H,3H,3aH,4H-pyrrolo[2,3-b]1,7-naphthyridin-4-one] | 71 | 4 | 22 | 31 |  | 70 | 9 | 43 | 3 | 15 | 29 | 44 | 74 | 96 | 1.7 | 99 |  |  | 54
O=C1c2ccncc2N=C2N(c3ccc(N4CCOCC4)cc3)CCC12O (stereo not drawn) [Compound 248, 3a-Hydroxy-1-[4-(morpholin-4-yl)phenyl]-1H,2H,3H,3aH,4H-pyrrolo[2,3-b]1,7-naphthyridin-4-one] | > 100 | 0 | 7 | > 100 |  | 2 | 4 | 1 | 1 | 0 | 0 | > 100 | 21 | 56 | 12 | 70 |  |  | 100
CN(C)c1ccc(N2CC[C@@]3(O)C(=O)c4ccsc4N=C23)cc1 [Compound 249, (9S)-12-[4-(dimethylamino)phenyl]-9-hydroxy-4-thia-2,12-diazatricyclo[7.3.0.0^3,7]dodeca-1,3(7),5-trien-8-one] | 10 | 15 | 39 | 35 |  | 90 | 11 | 52 | 19 | 55 | 69 | 13 | 80 | 97 | 1.2 | 100 |  | 100 | 47
Cc1cc2c(s1)N=C1N(c3ccc(N(C)C)cc3)CCC1(O)C2=O (stereo not drawn) [Compound 250, 12-[4-(Dimethylamino)phenyl]-9-hydroxy-5-methyl-4-thia-2,12-diazatricyclo[7.3.0.0^3,7]dodeca-1,3(7),5-trien-8-one] | 18 | 15 | 50 | 9 |  | 76 | 26 | 64 |  |  |  |  | 93 | 98 | 0.3 | 99 |  |  | 68
CN(C)c1ccc(N2CCC3(O)C(=O)c4ccncc4N=C23)cc1 (stereo not drawn) [Compound 251, 1-[4-(Dimethylamino)phenyl]-3a-hydroxy-1H,2H,3H,3aH,4H-pyrrolo[2,3-b]1,7-naphthyridin-4-one] | > 100 | 1 | 1 | 6 | 15 | 15 | 6 | 13 | 0 | 25 | 100 | > 100 | 47 | 85 | 4.8 | 93 |  |  | 
